Reference: article PMC2709273 (The Journal of pharmacology and experimental therapeutics, 2008)
“Also recorded” adds a separate entry of the source. Read-outs that look alike come from different tables or passages of the source. Where a SMILES comes first, the peptide text is derived from it.

What was measured:
α2β2 nAChRs = α2β2 nAChRs (Rattus norvegicus, UniProt P12389+P12390); format: cell-based
α4β2 nAChRs = α4β2 nAChRs (Rattus norvegicus, UniProt P09483+P12390); format: cell-based
α7 nAChRs [1] = target: T1, α7 nAChRs (Rattus norvegicus, UniProt Q05941); format: cell-based
T1 sequence (Q05941 23-502): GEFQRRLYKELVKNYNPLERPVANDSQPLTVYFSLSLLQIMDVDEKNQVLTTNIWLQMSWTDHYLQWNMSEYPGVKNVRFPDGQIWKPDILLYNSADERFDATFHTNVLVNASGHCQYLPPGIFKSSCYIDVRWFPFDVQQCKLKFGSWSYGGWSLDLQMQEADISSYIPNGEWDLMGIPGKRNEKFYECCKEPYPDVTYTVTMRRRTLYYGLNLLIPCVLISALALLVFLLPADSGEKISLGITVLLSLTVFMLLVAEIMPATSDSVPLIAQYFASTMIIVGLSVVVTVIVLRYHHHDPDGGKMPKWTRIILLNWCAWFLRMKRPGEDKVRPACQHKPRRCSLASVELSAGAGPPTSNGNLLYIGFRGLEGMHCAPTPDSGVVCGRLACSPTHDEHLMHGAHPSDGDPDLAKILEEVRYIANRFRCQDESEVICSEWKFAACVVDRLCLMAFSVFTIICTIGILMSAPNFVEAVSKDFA

[2] = target: native α7-containing nAChRs (rat CA1 stratum radiatum interneurons) (Rattus norvegicus, UniProt Q05941); format: cell-based
Chain of native α7-containing nAChRs (rat CA1 stratum radiatum interneurons) (Q05941 23-502): as above

[3] = target: homomeric α7 nicotinic acetylcholine receptor expressed in X. laevis oocytes (UniProt Q05941)
Chain of homomeric α7 nicotinic acetylcholine receptor expressed in X. laevis oocytes (Q05941 23-502): as above

α7 nAChRs [4] = target: T1, α7 nAChRs; conditions: native and expressed receptors, cited from earlier work
[5] = heteromeric nAChRs, X. laevis oocytes

Chain of α2β2 nAChRs (P12389 28-511): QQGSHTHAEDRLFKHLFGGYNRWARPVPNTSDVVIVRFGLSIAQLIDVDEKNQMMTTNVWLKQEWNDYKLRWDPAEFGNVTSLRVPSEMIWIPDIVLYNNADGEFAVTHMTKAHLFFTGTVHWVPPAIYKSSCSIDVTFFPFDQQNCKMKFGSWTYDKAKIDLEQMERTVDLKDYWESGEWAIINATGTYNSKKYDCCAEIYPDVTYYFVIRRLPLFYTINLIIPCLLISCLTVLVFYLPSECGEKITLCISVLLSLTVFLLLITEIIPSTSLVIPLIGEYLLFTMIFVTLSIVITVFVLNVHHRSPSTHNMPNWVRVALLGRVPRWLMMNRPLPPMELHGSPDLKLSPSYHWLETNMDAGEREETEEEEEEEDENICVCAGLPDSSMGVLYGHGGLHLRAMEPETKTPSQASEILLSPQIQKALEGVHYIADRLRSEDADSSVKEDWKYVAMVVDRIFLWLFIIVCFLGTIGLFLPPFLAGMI
Chain of α2β2 nAChRs (P12390 25-500): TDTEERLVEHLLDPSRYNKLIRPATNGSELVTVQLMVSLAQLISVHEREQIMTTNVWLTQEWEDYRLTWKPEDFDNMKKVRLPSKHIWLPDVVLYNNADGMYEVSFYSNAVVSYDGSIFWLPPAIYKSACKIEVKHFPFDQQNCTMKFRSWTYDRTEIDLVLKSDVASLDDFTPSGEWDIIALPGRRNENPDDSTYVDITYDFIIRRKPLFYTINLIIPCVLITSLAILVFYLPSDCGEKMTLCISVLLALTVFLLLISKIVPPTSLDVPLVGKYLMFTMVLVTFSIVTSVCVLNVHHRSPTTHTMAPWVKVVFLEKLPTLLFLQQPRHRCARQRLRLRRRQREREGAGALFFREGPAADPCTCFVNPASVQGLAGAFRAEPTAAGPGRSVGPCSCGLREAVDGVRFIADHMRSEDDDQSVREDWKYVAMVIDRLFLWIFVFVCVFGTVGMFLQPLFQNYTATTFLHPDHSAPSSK
Chain of α4β2 nAChRs (P09483 31-630): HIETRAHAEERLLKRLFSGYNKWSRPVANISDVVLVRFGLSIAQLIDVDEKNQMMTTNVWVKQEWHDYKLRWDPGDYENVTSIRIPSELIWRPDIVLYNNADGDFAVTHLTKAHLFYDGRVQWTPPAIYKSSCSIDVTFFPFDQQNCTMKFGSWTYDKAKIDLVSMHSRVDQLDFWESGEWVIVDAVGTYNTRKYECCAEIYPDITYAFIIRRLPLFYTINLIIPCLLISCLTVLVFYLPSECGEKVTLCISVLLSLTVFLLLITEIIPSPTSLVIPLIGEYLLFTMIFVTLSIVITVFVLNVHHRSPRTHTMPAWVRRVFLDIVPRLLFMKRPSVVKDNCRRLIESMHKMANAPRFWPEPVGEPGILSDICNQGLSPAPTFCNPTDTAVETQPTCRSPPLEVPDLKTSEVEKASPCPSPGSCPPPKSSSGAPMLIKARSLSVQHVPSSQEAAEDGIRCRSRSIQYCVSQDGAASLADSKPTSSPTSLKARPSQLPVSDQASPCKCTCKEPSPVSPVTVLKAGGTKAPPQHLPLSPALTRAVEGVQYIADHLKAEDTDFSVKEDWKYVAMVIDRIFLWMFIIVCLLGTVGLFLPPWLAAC
Chain of α4β2 nAChRs (P12390 25-500): as the sequence (P12390 25-500) above

Compound: CC(=O)N[C@@H](CCCCN)C(=O)N[C@@H](CCCCN)C(=O)N[C@@H](CCCCN)C(=O)N[C@@H](CCCCN)C(=O)N[C@@H](CCCCN)C(=O)N[C@@H](CCCNC(=N)N)C(=O)N[C@@H](Cc1ccccc1)C(=O)N[C@@H](CO)C(=O)N[C@@H](Cc1ccccc1)C(=O)N[C@@H](CCCCN)C(=O)N[C@@H](CCCCN)C(=O)N[C@@H](CO)C(=O)N[C@@H](Cc1ccccc1)C(=O)N[C@@H](CCCCN)C(=O)N[C@@H](CC(C)C)C(=O)N[C@@H](CO)C(=O)NCC(=O)N[C@@H](Cc1ccccc1)C(=O)N[C@@H](CO)C(=O)N[C@@H](Cc1ccccc1)C(=O)N[C@@H](CCCCN)C(=O)N[C@@H](CCCCN)C(=O)N[C@@H](CC(N)=O)C(=O)N[C@@H](CCCCN)C(=O)N[C@@H](CCCCN)C(N)=O [MARCKS ED peptide] (Ac-KKKKKRFSFKKSFKLSGFSFKKNKK-NH2)
- potency at α2β2 compared with α7 nAChRs (α2β2 nAChRs; IC50 comparison by F test): decreased potency; also recorded: less potent inhibition
- dissociation from α2β2 nAChRs relative to α7 (α2β2 nAChRs; [5]): appears to dissociate more rapidly from heteromeric nAChRs
- potency at α4β2 compared with α7 nAChRs (α4β2 nAChRs; IC50 comparison by F test): decreased potency; also recorded: less potent inhibition
- dissociation from α4β2 nAChRs relative to α7 (α4β2 nAChRs; [5]): appears to dissociate more rapidly from heteromeric nAChRs
- inhibition not because of open channel block (α7 nAChRs [1]; 1 µM peptide, +30 vs -60 mV): 86%
- voltage-dependent part of the inhibition (α7 nAChRs [1]; 1 µM peptide, +30 vs -60 mV): 14%
- onset of inhibition (α7 nAChRs [1]; 1 µM, X. laevis oocytes): rapid
- voltage dependence of inhibition (α7 nAChRs [1]; +30 and -60 mV): activity- and voltage-independent; also recorded: voltage- and activity-independent
- inhibition of ACh-evoked α7 nAChR responses (in words) (α7 nAChRs [1]; X. laevis oocytes): completely inhibited
- washout / recovery from inhibition (α7 nAChRs [1]; X. laevis oocytes): slow and slow recovery during washout and slow to recover with washout
- activity (use) dependence of inhibition (α7 nAChRs [1]; peptide bath applied 10 min without ACh stimulation, then ACh): activity- and voltage-independent; also recorded: there was not a use-dependent component of the peptide block; also recorded: voltage- and activity-independent
- inhibition at 1 µM (α7 nAChRs [1]; read-out: activity-independent inhibition of α7 nAChRs): 98 ± 2%
- inhibition at 1 µM (α7 nAChRs [1]; read-out: inhibition of ACh-induced α7 nAChR peak current responses): 99 ± 0.2%
- inhibition at 0.1 µM (α7 nAChRs [1]; read-out: inhibition of α7 ACh responses at 100 nM): 90 ± 2%
- inhibition at 1 µM (α7 nAChRs [1]; read-out: inhibition still present after washout): 82 ± 3%
- block of native α7 nAChRs in hippocampal interneurons (in words) ([2]; acute rat hippocampal slices): able to block native α7 nAChRs in a dose-dependent manner
- effect on baseline current in hippocampal interneurons ([2]; bath application): no effect
- onset of inhibition, hippocampal slices ([2]; bath application): slow
- inhibition at 1 µM ([2]; read-out: inhibition of ACh-evoked responses in hippocampal interneurons, 1 µM): 59 ± 13%
- inhibition at 3 µM ([2]; read-out: inhibition of ACh-evoked responses in hippocampal interneurons, 3 µM): 92 ± 2%
- inhibition at 10 µM ([2]; read-out: inhibition of ACh-evoked responses in hippocampal interneurons, 10 µM): 100%
- recovery of responses after washout, hippocampal slices ([2]; within 20 min of washout, two to three interneurons): do not recover after MARCKS ED peptide inhibition

Compound: KKKKKRFDFKKDFKLDGFDFKKNK [MARCKS S/D]
- inhibition of ACh-evoked α7 nAChR responses (in words) (α7 nAChRs [1]; X. laevis oocytes): unable to inhibit ACh-mediated α7 nAChR responses; also recorded: lack of inhibition of nAChR responses

Compound: MARCKS154–165: truncated form of the MARCKS ED peptide, purchased from AnaSpec (KKKRFSFKKSFK; UniProt P29966 154-165, looked up, fragment)
- inhibition of ACh-evoked α7 nAChR responses (in words) (α7 nAChRs [1]; X. laevis oocytes): unable to significantly inhibit α7 nAChRs

Compound: MARCKS159–165: truncated form of the MARCKS ED peptide, purchased from AnaSpec (SFKKSFK; UniProt P29966 159-165, looked up, fragment)
- inhibition of ACh-evoked α7 nAChR responses (in words) (α7 nAChRs [1]; X. laevis oocytes): unable to significantly inhibit α7 nAChRs

Compound: MARCKS_(154–165) peptide
- percentage block of ACh-evoked α7 nAChR current in oocytes, peptide 1 µM [3]: 12%

Compound: MARCKS_(159–165) peptide
- percentage block of ACh-evoked α7 nAChR current in oocytes, peptide 1 µM [3]: 5%

Compound: β-Amyloid1–42: brain-derived peptide β-amyloid1–42
- effect on α7 nAChRs (α7 nAChRs [4]; ref Dineley et al., 2002, Dougherty et al., 2003): agonism
- effect on α7 nAChRs (α7 nAChRs [4]; ref Liu et al., 2001, Grassi et al., 2003): almost complete antagonism
- effect on α7 nAChRs (α7 nAChRs [4]; ref Pettit et al., 2001, Lamb et al., 2005): minimal to no antagonism
